{"source": "paper PMC8860565", "about": "“Molecular Insights into How the Dimetal Center in Dihydropyrimidinase Can Bind the Thymine Antagonist 5-Aminouracil: A Different Binding Mode from the Anticancer Drug 5-Fluorouracil” (Bioinorganic Chemistry and Applications, 2022)", "key": {"PaDHPase-C318A": {"target": "T1, PaDHPase-C318A (Pseudomonas aeruginosa, UniProt Q9I676, C318A)", "T1 construct": "made in house; host or cells: Escherichia coli BL21 (DE3) (stated for the wild type; mutants purified by the same protocol)", "T1 sequence (Q9I676 whole entry C318A)": "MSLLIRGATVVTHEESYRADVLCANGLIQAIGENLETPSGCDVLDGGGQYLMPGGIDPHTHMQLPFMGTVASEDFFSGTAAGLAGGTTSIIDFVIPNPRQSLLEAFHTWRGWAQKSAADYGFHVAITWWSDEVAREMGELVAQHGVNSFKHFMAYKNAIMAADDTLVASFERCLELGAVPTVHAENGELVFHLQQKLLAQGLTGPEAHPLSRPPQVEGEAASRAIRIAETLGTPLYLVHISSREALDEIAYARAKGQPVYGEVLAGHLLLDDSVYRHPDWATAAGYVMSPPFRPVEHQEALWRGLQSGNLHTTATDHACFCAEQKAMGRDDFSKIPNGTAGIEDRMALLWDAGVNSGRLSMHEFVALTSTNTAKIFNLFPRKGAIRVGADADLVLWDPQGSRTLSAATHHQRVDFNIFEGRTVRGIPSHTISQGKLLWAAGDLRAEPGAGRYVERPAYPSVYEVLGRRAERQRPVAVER", "test": "Fluorescence quenching titration of PaDHPase-C318A mutant", "assay_type": "binding", "description": "(§1) The PaDHPase mutants were generated according to the QuikChange Site-Directed Mutagenesis kit protocol (Stratagene; La Jolla, CA, USA). The wild-type plasmid pET21b-PaDHPase was used as a template. The presence of the mutation was verified by DNA sequencing in each construct. The recombinant mutant proteins were purified using the protocol for the wild-type PaDHPase by Ni^2+-affinity chromatography (Table 1).\n(§2) Through the fluorescence quenching analysis, the Kd value of the purified PaDHPase was determined. An aliquot of 5-AU was added into the solution containing PaDHPase (0.8 μM) and 50 mM HEPES at pH 7.0. The decrease in the intrinsic fluorescence of PaDHPase was measured at 336 nm upon excitation at 279 nm and 25°C with a spectrofluorimeter (Hitachi F-2700; Hitachi High-Technologies, Japan). The Kd was obtained using the equation: ΔF = ΔFmax − Kd(ΔF/[5-AU]).\n(§3) Figure 4 Fluorescence titration of PaDHPase with 5-AU. (a) The fluorescence emission spectra of PaDHPase with 5-AU of different concentrations (0–300 μM). The decrease in intrinsic fluorescence of protein was measured at 336 nm upon excitation at 279 nm with a spectrofluorimeter. […] (b) The fluorescence emission spectra of PaDHPase-Y155A with 5-AU of different concentrations (0–300 μM). (c) The fluorescence emission spectra of PaDHPase-S289A with 5-AU. (d) The fluorescence emission spectra of PaDHPase-N337A with 5-AU. (e) The fluorescence emission spectra of PaDHPase-C318A with 5-AU. (f) The fluorescence emission spectra of Znα-PaDHPase with 5-AU. (g) An aliquot amount of 5-AU was added to the enzyme solution for determining the Kd. The Kd was obtained by the equation: ΔF = ΔFmax − Kd(ΔF/[5-AU]). Data points are an average of 2–3 determinations within 10% error.\nStructurally, Cys318 is involved in 5-FU [44] but not 5-AU. For comparison, the C318A mutant was also analyzed by fluorescence quenching (Figure 4(e)). […] The abilities of the wild-type PaDHPase and the C318A mutant to bind 5-AU are approximately equal. Thus, Cys318 is not essential for 5-AU binding."}, "[1]": {"test_system": "biphasic interphase-mitotic (IM) cells", "parameters": "method as in PMID 32328702", "conditions": "cited from earlier work"}, "[2]": {"target": "T2, Znα-PaDHPase (mono-Zn PaDHPase) (Pseudomonas aeruginosa, UniProt Q9I676)", "T2 construct": "made in house; host or cells: Escherichia coli BL21 (DE3)", "test": "Fluorescence quenching titration of mono-Zn PaDHPase", "assay_type": "binding", "protocol": "The mono-Zn PaDHPase was prepared using the protocol described previously. Purified PaDHPase was dialyzed against a chelating buffer (50 mM MES, 50 mM EDTA, and 15 mM 8-HQSA, pH 6.5; Buffer B) at room temperature for 3 days. The resultant enzyme solution was then dialyzed against Buffer A.\nas §2, §3\nTo confirm the role of Znβ in 5-AU binding and to compare the binding contribution with other mutant proteins (Table 3), we produced mono-Zn PaDHPase (Znα-PaDHPase) for binding analysis. […] The binding of 5-AU to Znα-PaDHPase was also analyzed by the fluorescence quenching method (Figure 4(f)). Upon the addition of 300 μM 5-AU, the intrinsic fluorescence of Znα-PaDHPase was quenched by 49.3%. The Kd value of Znα-PaDHPase for 5-AU binding was calculated to be 281.5 ± 9.0 μM from the titration curve (Figure 4(g)). Based on the Kd values, the strength of complex formation with 5-AU followed the following order: the wild-type enzyme ≈ C318A > N337A > Y155A ≈ S289A > Znα-PaDHPase (Table 3)."}, "PaDHPase-S289A": {"target": "T3, PaDHPase-S289A (Pseudomonas aeruginosa, UniProt Q9I676, S289A)", "T3 construct": "made in house; host or cells: Escherichia coli BL21 (DE3) (stated for the wild type; mutants purified by the same protocol)", "T3 sequence (Q9I676 whole entry S289A)": "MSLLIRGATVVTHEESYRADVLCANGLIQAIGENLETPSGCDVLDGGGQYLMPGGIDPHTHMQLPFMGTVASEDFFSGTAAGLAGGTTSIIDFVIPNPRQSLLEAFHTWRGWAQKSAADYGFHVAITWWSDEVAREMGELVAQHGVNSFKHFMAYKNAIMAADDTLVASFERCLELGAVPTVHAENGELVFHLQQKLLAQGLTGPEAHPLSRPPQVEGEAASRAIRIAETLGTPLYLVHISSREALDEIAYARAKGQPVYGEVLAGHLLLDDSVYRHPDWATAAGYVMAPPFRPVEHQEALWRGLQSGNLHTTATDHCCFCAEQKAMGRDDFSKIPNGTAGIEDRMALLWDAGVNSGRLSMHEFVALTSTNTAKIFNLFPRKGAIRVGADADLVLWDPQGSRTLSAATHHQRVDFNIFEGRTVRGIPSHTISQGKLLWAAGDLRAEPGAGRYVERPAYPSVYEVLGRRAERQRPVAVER", "test": "Fluorescence quenching titration of PaDHPase-S289A mutant", "assay_type": "binding", "description": "as §1, §2, §3\n(§4) 5-AU interacts with the main chains of residues Ser289 and Asn337 and the side chain of residue Tyr155. To investigate the contribution of individual amino acid residues to 5-AU binding, alanine substitution mutants (Table 2) were constructed and analyzed by fluorescence quenching (Figures 4(b)–4(d))."}, "PaDHPase-Y155A": {"target": "T4, PaDHPase-Y155A (Pseudomonas aeruginosa, UniProt Q9I676, Y155A)", "T4 construct": "made in house; host or cells: Escherichia coli BL21 (DE3) (stated for the wild type; mutants purified by the same protocol)", "T4 sequence (Q9I676 whole entry Y155A)": "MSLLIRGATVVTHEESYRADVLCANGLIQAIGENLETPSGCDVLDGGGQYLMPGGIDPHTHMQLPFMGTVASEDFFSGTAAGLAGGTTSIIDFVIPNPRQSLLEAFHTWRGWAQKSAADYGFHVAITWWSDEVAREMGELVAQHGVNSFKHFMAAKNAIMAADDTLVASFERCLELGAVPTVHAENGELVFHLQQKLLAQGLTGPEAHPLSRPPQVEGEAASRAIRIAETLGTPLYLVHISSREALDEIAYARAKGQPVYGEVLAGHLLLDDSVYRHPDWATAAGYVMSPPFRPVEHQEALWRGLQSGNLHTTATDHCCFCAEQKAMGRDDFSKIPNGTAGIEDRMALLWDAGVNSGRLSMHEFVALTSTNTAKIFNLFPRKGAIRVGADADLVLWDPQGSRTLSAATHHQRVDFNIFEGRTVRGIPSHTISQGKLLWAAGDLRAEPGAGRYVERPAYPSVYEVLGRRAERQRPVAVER", "test": "Fluorescence quenching titration of PaDHPase-Y155A mutant", "assay_type": "binding", "description": "as §1\nas §2, with “The Kd was obtained using the equation: ΔF = ΔFmax − Kd(ΔF/[5-AU]).” left out\nas §3, with “(f) The fluorescence emission spectra of Znα-PaDHPase with 5-AU. (g) An aliquot amount of 5-AU was added to the enzyme solution for determining the Kd. The Kd was obtained by the equation: ΔF = ΔFmax − Kd(ΔF/[5-AU]). Data points are an average of 2–3 determinations within 10% error.” left out"}, "[3]": {"target": "T5, Pseudomonas aeruginosa DHPase (PaDHPase) (Pseudomonas aeruginosa, UniProt Q9I676)", "T5 construct": "made in house; host or cells: Escherichia coli BL21 (DE3)", "test": "Fluorescence quenching titration of wild-type PaDHPase", "assay_type": "binding", "protocol": "as §2\nPrior to this study, whether 5-AU could bind to DHPase remained unknown. To confirm if PaDHPase is capable of binding 5-AU, we used the fluorescence quenching method to determine the binding ability of PaDHPase (Figure 4). Quenching is a complex formation process that decreases the fluorescence intensity of protein. […] When 5-AU was titrated into the PaDHPase solution, the intrinsic fluorescence of the protein was progressively quenched. Upon the addition of 300 μM 5-AU, the intrinsic fluorescence of PaDHPase was quenched by 87.3%.\nas §3"}, "PaDHPase-N337A": {"target": "T6, PaDHPase-N337A (Pseudomonas aeruginosa, UniProt Q9I676, N337A)", "T6 construct": "made in house; host or cells: Escherichia coli BL21 (DE3) (stated for the wild type; mutants purified by the same protocol)", "T6 sequence (Q9I676 whole entry N337A)": "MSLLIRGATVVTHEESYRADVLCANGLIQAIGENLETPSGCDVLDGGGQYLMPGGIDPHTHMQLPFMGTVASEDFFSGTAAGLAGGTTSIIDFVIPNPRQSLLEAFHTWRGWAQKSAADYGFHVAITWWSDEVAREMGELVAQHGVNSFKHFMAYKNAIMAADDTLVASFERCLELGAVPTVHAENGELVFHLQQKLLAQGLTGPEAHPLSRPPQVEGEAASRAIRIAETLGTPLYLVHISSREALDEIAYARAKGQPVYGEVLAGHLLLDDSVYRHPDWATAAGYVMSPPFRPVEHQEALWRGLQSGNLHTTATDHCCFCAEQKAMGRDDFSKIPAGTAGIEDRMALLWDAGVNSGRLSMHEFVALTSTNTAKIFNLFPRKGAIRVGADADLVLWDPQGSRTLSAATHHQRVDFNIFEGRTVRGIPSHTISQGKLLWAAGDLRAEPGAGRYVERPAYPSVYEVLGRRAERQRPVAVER", "test": "Fluorescence quenching titration of PaDHPase-N337A mutant", "assay_type": "binding", "description": "as §1, §2, §3, §4"}, "[4]": {"target": "T5, Pseudomonas aeruginosa DHPase (PaDHPase)", "conditions": "read-out: Kd value of PaDHPase bound to 5-FU; wild-type PaDHPase ref 44; cited from earlier work"}}, "note": "Where two headings read alike, the source gives them in different places."}
{"smiles": "Nc1c[nH]c(=O)[nH]c1=O", "note": "[5-AU, 5-aminouracil]", "values": [{"measurement": "Kd", "setting": "PaDHPase-C318A", "result": "103 ± 3.1", "unit": "µM"}, {"measurement": "λ em shift", "setting": "PaDHPase-C318A; PaDHPase-C318A", "result": 6.0, "unit": "nm"}, {"measurement": "λ max", "setting": "PaDHPase-C318A; PaDHPase-C318A, emission maximum before and after adding 5-AU", "result": "From 336 to 342"}, {"measurement": "induction of biphasic interphase-mitotic (IM) cells", "setting": "[1]", "result": "significantly induce biphasic interphase-mitotic (IM) cells"}, {"measurement": "Kd", "setting": "[2]", "result": "281 ± 9", "unit": "µM"}, {"measurement": "λ em shift", "setting": "[2]; Znα-PaDHPase", "result": 1.5, "unit": "nm"}, {"measurement": "Quenching (%) of intrinsic fluorescence", "setting": "[2]; Znα-PaDHPase (mono-Zn), 300 μM 5-AU", "result": 49.3, "unit": "%"}, {"measurement": "λ max", "setting": "[2]; Znα-PaDHPase, emission maximum before and after adding 5-AU", "result": "From 335 to 336.5"}, {"measurement": "Kd", "setting": "PaDHPase-S289A", "result": "256 ± 3.2", "unit": "µM"}, {"measurement": "λ em shift", "setting": "PaDHPase-S289A; PaDHPase-S289A", "result": 2.0, "unit": "nm"}, {"measurement": "λ max", "setting": "PaDHPase-S289A; PaDHPase-S289A, emission maximum before and after adding 5-AU", "result": "From 337 to 339"}, {"measurement": "Kd", "setting": "PaDHPase-Y155A", "result": "247 ± 4", "unit": "µM"}, {"measurement": "λ max", "setting": "PaDHPase-Y155A; PaDHPase-Y155A, emission maximum before and after adding 5-AU", "result": "From 336.5 to 342"}, {"measurement": "Kd", "setting": "[3]", "result": "97.7 ± 2", "unit": "µM"}, {"measurement": "Quenching (%) of intrinsic fluorescence", "setting": "[3]; wild-type PaDHPase, 300 μM 5-AU, emission 336 nm, excitation 279 nm", "result": 87.3, "unit": "%"}, {"measurement": "λ max", "setting": "[3]; wild-type PaDHPase, emission maximum before and after adding 5-AU", "result": "From 336.5 to 343"}, {"measurement": "λ em shift", "setting": "[3]; wild-type PaDHPase, red shift on adding 5-AU", "result": "~6.5", "unit": "nm"}, {"measurement": "Kd", "setting": "PaDHPase-N337A", "result": "192 ± 8", "unit": "µM"}, {"measurement": "λ em shift", "setting": "PaDHPase-N337A; PaDHPase-N337A", "result": 3.5, "unit": "nm"}, {"measurement": "λ max", "setting": "PaDHPase-N337A; PaDHPase-N337A, emission maximum before and after adding 5-AU", "result": "From 336 to 339.5"}]}
{"smiles": "O=c1[nH]cc(F)c(=O)[nH]1", "note": "[5-FU, 5-fluorouracil]", "values": [{"measurement": "Kd", "setting": "[4]", "result": "133 ± 8.5", "unit": "µM"}, {"measurement": "induction of biphasic interphase-mitotic (IM) cells", "setting": "[1]", "result": "no induction of IM cells was detected"}]}
